Measured values: patent US12357711B2, “PSMA binding dual mode radiotracer and therapeutic” (Technische Universität München, priority 2019, dated 2025)

Tested on: SCID mice
Assay: Preclinical dosimetry from biodistribution in mice, extrapolated to 70-kg Standard Adult (OLINDA/EXM 1.0)
Assay type: in vivo
Conditions: 1.0 h bladder voiding interval
Description: 3-5 mice were injected per timepoint with a mean 25.6±3.6 MBq of 18F-rhPSMA-7 and 28.5±4.8 MBq of 18F-rhPSMA-7.3, respectively. Mice, severe combined immunodeficiency (SCID) were used for the experiments.
Mice were sacrificed at the following timepoints: • ^18F-rhPSMA-7: 10, 20, 40, 60, 120 and 180 minutes after administration. • ^18F-rhPSMA-7.3: 10, 60, 120, 180 and 300 minutes after administration.
Urine, blood, heart, lung, spleen, pancreas, liver, stomach (emptied), small intestine (emptied), large intestine (emptied), kidneys, bladder, testis, fat, muscle (partial, femoral), femur, tail and brain. Urine was collected with a pipette in the CO2 gas chamber. In case of missing urination in the chamber the bladder was aspirated with an insulin syringe. Blood was withdrawn instantly after sacrifice with an insulin syringe from the heart. All other tissues and organs were dissected and transferred directly in plastic containers.
The counting rates of measurement samples were automatically corrected for decay. The radioactivity distribution ratios (unit: percentage of the injected dose (% ID) in the measurement samples were determined using the equation below. The sum of the counting rates from all measurement samples obtained from one mouse was designated as the counting rate for administrated radioactivity.
The radioactivity distribution ratio per unit weight of the measurement sample (unit: % ID/g) excluding urine and feces samples was determined by using the equation below. The weight of the measurement sample was determined by subtraction of the empty measurement container from the container including the sample.
For consistency of statistical calculations for each radiotracer the same number of time-points for ^18F-rhPSMA-7 and ^18F-rhPSMA-7.3 was used. Therefore, for ^18F-rhPSMA-7 the 10 min and 20 min time points were combined creating a 15 min endpoint.
The time-integral of activity for the accumulation in the significant source organs (AUCs) were generated both with numerical integration and physical decay according to J Juan et al., Journal of Pharmaceutical Sciences, 1993, 82:762-763.
In brief, to calculate a human dosimetry from the biodistribution in the mice, an extrapolation was necessary to account for the differences between the animals and humans. Normal-organ radiation doses were estimated for the 70-kg Standard Adult anatomic model using time-depending organ activity concentrations (in percent of the injected dose per gram, % ID/g) and total-body activities measured in the biodistribution studies in mice.
Tissue activity concentrations in mice were converted to tissue fractional activities in the 70-kg Standard Adult using the relative fractional organ masses in the Standard Adult and the “standard” 25-gramm mouse. Time-dependent total-body activity was fit to an exponential function and the difference between the injected activity and the total-body activity was assumed to be excreted to the urine because activity concentrations in the liver and GI tracer were low at all time points studied.
Organ residence time was calculated by numerical integration using the trapezoidal rule and the rest-of-body ^18F residence times was calculated as the difference between the total-body residence time and the sum of the organ and urine residence times. The bladder contents residence time was estimated using the dynamic voiding model in the OLINDA/EXM 1.0 dosimetry software. Finally, the Standard Adult mean organ dose equivalents (in mSv/MBq) and effective dose (also in mSv/MBq) were then calculated using OLIN DA/EXM 1.0.
Final calculation of radiation absorbed dose and dosimetry from biodistribution in mice: The tissues or organs in which a significant accumulation of radioactivity occurs (i.e., source organ) were kidney, spleen, lung, liver and heart. With respect to activity accumulation and clearance, a rapid clearance from blood and clearance to urine but relatively slow build-up in kidney was found.

[^19F][^natGa]D/L-Dap-R/S-DOTAGA-rhPSMA7 [rhPSMA7-rac]
Adrenals ED Cont.: 3.79E−05 mSv/MBq | Adrenals EDE Cont.: 0.00E000 mSv/MBq | Adrenals dose Alpha: 0.00E000 mSv/MBq | Adrenals dose Beta: 1.95E−03 mSv/MBq | Adrenals dose Photon: 5.64E−03 mSv/MBq | Adrenals dose Total: 7.59E−03 mSv/MBq | Brain ED Cont.: 2.24E−05 mSv/MBq | Brain EDE Cont.: 0.00E000 mSv/MBq | Brain dose Alpha: 0.00E000 mSv/MBq | Brain dose Beta: 1.95E−03 mSv/MBq | Brain dose Photon: 2.54E−03 mSv/MBq | Brain dose Total: 4.49E−03 mSv/MBq | Breasts ED Cont.: 2.10E−04 mSv/MBq | Breasts EDE Cont.: 6.30E−04 mSv/MBq | Breasts dose Alpha: 0.00E000 mSv/MBq | Breasts dose Beta: 1.95E−03 mSv/MBq | Breasts dose Photon: 2.25E−03 mSv/MBq | Breasts dose Total: 4.20E−03 mSv/MBq | Gallbladder Wall ED Cont.: 0.00E000 mSv/MBq | Gallbladder Wall EDE Cont.: 0.00E000 mSv/MBq | Gallbladder Wall dose Alpha: 0.00E000 mSv/MBq | Gallbladder Wall dose Beta: 1.95E−03 mSv/MBq | Gallbladder Wall dose Photon: 4.96E−03 mSv/MBq | Gallbladder Wall dose Total: 6.91E−03 mSv/MBq | Heart Wall ED Cont.: 0.00E000 mSv/MBq | Heart Wall EDE Cont.: 0.00E000 mSv/MBq | Heart Wall dose Alpha: 0.00E000 mSv/MBq | Heart Wall dose Beta: 8.82E−04 mSv/MBq | Heart Wall dose Photon: 3.48E−03 mSv/MBq | Heart Wall dose Total: 4.36E−03 mSv/MBq | Kidneys ED Cont.: 3.23E−04 mSv/MBq | Kidneys EDE Cont.: 3.88E−03 mSv/MBq | Kidneys dose Alpha: 0.00E000 mSv/MBq | Kidneys dose Beta: 4.70E−02 mSv/MBq | Kidneys dose Photon: 1.76E−02 mSv/MBq | Kidneys dose Total: 6.47E−02 mSv/MBq | LLI Wall ED Cont.: 1.10E−03 mSv/MBq | LLI Wall EDE Cont.: 5.52E−04 mSv/MBq | LLI Wall dose Alpha: 0.00E000 mSv/MBq | LLI Wall dose Beta: 1.95E−03 mSv/MBq | LLI Wall dose Photon: 7.25E−03 mSv/MBq | LLI Wall dose Total: 9.20E−03 mSv/MBq | Liver ED Cont.: 2.01E−04 mSv/MBq | Liver EDE Cont.: 0.00E000 mSv/MBq | Liver dose Alpha: 0.00E000 mSv/MBq | Liver dose Beta: 6.35E−04 mSv/MBq | Liver dose Photon: 3.39E−03 mSv/MBq | Liver dose Total: 4.02E−03 mSv/MBq | Lungs ED Cont.: 5.11E−04 mSv/MBq | Lungs EDE Cont.: 5.11E−04 mSv/MBq | Lungs dose Alpha: 0.00E000 mSv/MBq | Lungs dose Beta: 1.25E−03 mSv/MBq | Lungs dose Photon: 3.01E−03 mSv/MBq | Lungs dose Total: 4.26E−03 mSv/MBq | Muscle ED Cont.: 2.98E−05 mSv/MBq | Muscle EDE Cont.: 0.00E000 mSv/MBq | Muscle dose Alpha: 0.00E000 mSv/MBq | Muscle dose Beta: 1.95E−03 mSv/MBq | Muscle dose Photon: 4.01E−03 mSv/MBq | Muscle dose Total: 5.96E−03 mSv/MBq | Osteogenic Cells ED Cont.: 8.27E−05 mSv/MBq | Osteogenic Cells EDE Cont.: 2.48E−04 mSv/MBq | Osteogenic Cells dose Alpha: 0.00E000 mSv/MBq | Osteogenic Cells dose Beta: 4.18E−03 mSv/MBq | Osteogenic Cells dose Photon: 4.09E−03 mSv/MBq | Osteogenic Cells dose Total: 8.27E−03 mSv/MBq | Ovaries ED Cont.: 1.83E−03 mSv/MBq | Ovaries EDE Cont.: 2.29E−03 mSv/MBq | Ovaries dose Alpha: 0.00E000 mSv/MBq | Ovaries dose Beta: 1.95E−03 mSv/MBq | Ovaries dose Photon: 7.21E−03 mSv/MBq | Ovaries dose Total: 9.16E−03 mSv/MBq | Pancreas ED Cont.: 3.90E−05 mSv/MBq | Pancreas EDE Cont.: 0.00E000 mSv/MBq | Pancreas dose Alpha: 0.00E000 mSv/MBq | Pancreas dose Beta: 1.95E−03 mSv/MBq | Pancreas dose Photon: 5.86E−03 mSv/MBq | Pancreas dose Total: 7.80E−03 mSv/MBq | Red Marrow ED Cont.: 6.82E−04 mSv/MBq | Red Marrow EDE Cont.: 6.82E−04 mSv/MBq | Red Marrow dose Alpha: 0.00E000 mSv/MBq | Red Marrow dose Beta: 1.39E−03 mSv/MBq | Red Marrow dose Photon: 4.29E−03 mSv/MBq | Red Marrow dose Total: 5.68E−03 mSv/MBq | Skin ED Cont.: 4.32E−05 mSv/MBq | Skin EDE Cont.: 0.00E000 mSv/MBq | Skin dose Alpha: 0.00E000 mSv/MBq | Skin dose Beta: 1.95E−03 mSv/MBq | Skin dose Photon: 2.38E−03 mSv/MBq | Skin dose Total: 4.32E−03 mSv/MBq | Small Intestine ED Cont.: 3.87E−05 mSv/MBq | Small Intestine EDE Cont.: 0.00E000 mSv/MBq | Small Intestine dose Alpha: 0.00E000 mSv/MBq | Small Intestine dose Beta: 1.95E−03 mSv/MBq | Small Intestine dose Photon: 5.79E−03 mSv/MBq | Small Intestine dose Total: 7.73E−03 mSv/MBq | Spleen ED Cont.: 1.29E−04 mSv/MBq | Spleen EDE Cont.: 1.55E−03 mSv/MBq | Spleen dose Alpha: 0.00E000 mSv/MBq | Spleen dose Beta: 1.59E−02 mSv/MBq | Spleen dose Photon: 9.90E−03 mSv/MBq | Spleen dose Total: 2.58E−02 mSv/MBq | Stomach Wall ED Cont.: 7.98E−04 mSv/MBq | Stomach Wall EDE Cont.: 0.00E000 mSv/MBq | Stomach Wall dose Alpha: 0.00E000 mSv/MBq | Stomach Wall dose Beta: 1.95E−03 mSv/MBq | Stomach Wall dose Photon: 4.70E−03 mSv/MBq | Stomach Wall dose Total: 6.65E−03 mSv/MBq | Testes ED Cont.: 0.00E000 mSv/MBq | Testes EDE Cont.: 0.00E000 mSv/MBq | Testes dose Alpha: 0.00E000 mSv/MBq | Testes dose Beta: 1.95E−03 mSv/MBq | Testes dose Photon: 5.09E−03 mSv/MBq | Testes dose Total: 7.03E−03 mSv/MBq | Thymus ED Cont.: 2.57E−05 mSv/MBq | Thymus EDE Cont.: 0.00E000 mSv/MBq | Thymus dose Alpha: 0.00E000 mSv/MBq | Thymus dose Beta: 1.95E−03 mSv/MBq | Thymus dose Photon: 3.20E−03 mSv/MBq | Thymus dose Total: 5.15E−03 mSv/MBq | Thyroid ED Cont.: 2.59E−04 mSv/MBq | Thyroid EDE Cont.: 1.55E−04 mSv/MBq | Thyroid dose Alpha: 0.00E000 mSv/MBq | Thyroid dose Beta: 1.95E−03 mSv/MBq | Thyroid dose Photon: 3.23E−03 mSv/MBq | Thyroid dose Total: 5.17E−03 mSv/MBq | Total Body ED Cont.: 0.00E000 mSv/MBq | Total Body EDE Cont.: 0.00E000 mSv/MBq | Total Body dose Alpha: 0.00E000 mSv/MBq | Total Body dose Beta: 2.27E−03 mSv/MBq | Total Body dose Photon: 3.93E−03 mSv/MBq | Total Body dose Total: 6.19E−03 mSv/MBq | ULI Wall ED Cont.: 3.64E−05 mSv/MBq | ULI Wall EDE Cont.: 0.00E000 mSv/MBq | ULI Wall dose Alpha: 0.00E000 mSv/MBq | ULI Wall dose Beta: 1.95E−03 mSv/MBq | ULI Wall dose Photon: 5.33E−03 mSv/MBq | ULI Wall dose Total: 7.27E−03 mSv/MBq | Urinary Bladder Wall ED Cont.: 5.76E−03 mSv/MBq | Urinary Bladder Wall EDE Cont.: 6.92E−03 mSv/MBq | Urinary Bladder Wall dose Alpha: 0.00E000 mSv/MBq | Urinary Bladder Wall dose Beta: 7.87E−02 mSv/MBq | Urinary Bladder Wall dose Photon: 3.66E−02 mSv/MBq | Urinary Bladder Wall dose Total: 1.15 E−01 mSv/MBq | Uterus ED Cont.: 6.56E−05 mSv/MBq | Uterus EDE Cont.: 7.87E−04 mSv/MBq | Uterus dose Alpha: 0.00E000 mSv/MBq | Uterus dose Beta: 1.95E−03 mSv/MBq | Uterus dose Photon: 1.12E−02 mSv/MBq | Uterus dose Total: 1.31E−02 mSv/MBq
